The record followed here is patent US20050004177A1, “Combination of an allosteric inhibitor of matrix metalloproteinase-13 and a ligand to an alpha-2-delta receptor” (WARNER-LAMBERT COMPANY LLC, priority 2003, published 2005).

As a reminder, the melting point is the temperature of the solid-liquid transition. Compound `O=C(O)c1ccc(Cn2nnc(-c3cccc(C#CCc4ccccc4)c3)n2)cc1` [Preparation 2, 4-{5-[3-(3-Phenyl-prop-1-ynyl)-phenyl]-tetrazol-2-ylmethyl}-benzoic acid] returned a melting point of 195 to 198 °C.
